Laboratory results published in publication PMC6267684, “Pharmacokinetic evaluation of the PNC disassembler metarrestin in wild-type and Pdx1-Cre;LSL-Kras^G12D/+;Tp53^R172H/+ (KPC) mice, a genetically engineered model of pancreatic cancer” (Cancer Chemotherapy and Pharmacology, 2018).
Where “and” joins values, the source holds several entries; their conditions need not be identical. Equal entries are not always repeated. Where two headings read alike, the source gives them in different places.

Test: Pharmacokinetics in tumor-bearing KPC mice after 25 mg/kg single or multiple dose oral gavage
Format: in vivo
Conditions: for AUC(0-t): po; for Kp: read-out: AUC0–24h ratio (tissue/plasma)
Source text: Animals with three or more tumors per organ, pancreatic cysts or cystic tumors, signs of intestinal, pancreatic or gall bladder duct occlusions, or otherwise moribund/showing signs of dilapidation were excluded. Mice were randomized into treatment groups using their tumor volume and location inside pancreas, animal age, gender, and weight by an unbiased covariate randomization.
For pharmacokinetic studies, metarrestin solutions prepared in 30% PEG-400 and 70% (20% w:v HP-β-CD in water) solution were administered to C57BL/6 mice at 3 mg/kg IV via tail vein injection, or 3 and 10 mg/kg orally via gavage. KPC mice were additionally treated with 25 mg/kg PO via gavage. The dosing volume was 3 mL/kg for IV route and 10 mL/kg for PO route. Dosing solutions were prepared on the day of administration. Blood samples were collected at 10, 20 min, 1, 2, 4, 7 and 24 h after 3 mg/kg IV administration. After oral administration of 3 and 10 mg/kg in C57BL6 mice, blood and liver samples were collected at 10 min, 0.5, 1, 2, 3, 5, 7, 9 and 24 h post dosing (n = 3 per time point). In KPC mice, blood, pancreatic tumor, spleen and liver samples were collected at 1, 2, 3, 6, 9, 12 and 24 h after 25 mg/kg PO administration.
For the assessment of multiple dose (MD) pharmacokinetics, KPC mice were treated with daily PO administration of 25 mg/kg metarrestin for 14 days. Plasma (100–300 µL), pancreatic tumors, spleen and liver samples were collected at 0, 3, 6, 9, 12, 15, 24 and 48 h after last dose from three mice at each time point. Daily dosing was carried for 14 days, with the last dose administered at 9:00 a.m. on Day 14. To assess the steady-state concentration of metarrestin in KPC mice, animals were treated with drug-formulated chow for 14 days. To control for daily cycle changes in feeding behavior, 9:00 a.m. on day 0 was designated as the study start time, and 9:00 a.m. on Day 14 was designated as the 0 h time point for sample collection. Blood, pancreatic tumor, spleen and liver tissue were collected at 0, 3, 6, 9, 12, 15, and 24 h from three mice at each time point while the animals were continuously fed with metarrestin-formulated chow on Day 14. Additional controls included mice with a matched drug-free diet, with blood and tissue samples collected at the initial (t = 0) and two intermediate (t = 9 h, t = 24 h) time points.
Blood samples were collected in K2EDTA tubes and plasma was harvested after centrifugation at 3000 rpm for 10 min. Tissue samples were weighed and flash-frozen for PK and PD mRNA expression analyses, embedded into OCT blocks for PNC determination and processed into FFPE blocks for histopathology assessment. All PK samples were stored at − 80 °C until analysis.
An ultra-performance liquid chromatography–tandem mass spectrometry (UPLC–MS/MS) method was developed to determine metarrestin concentrations in plasma and tissue samples. Mass spectrometric analysis was performed on a Waters Xevo TQ-S triple quadrupole instrument using electrospray ionization in positive mode. The separation was performed on an Acquity BEH C18 column (50 × 2.1 mm, 1.7 µ) using a Waters Acquity UPLC system with 0.6 mL/min flow rate and gradient elution. Mobile phase A was 0.1% formic acid in water, and B was 0.1% formic acid in acetonitrile (ACN). The column temperature was maintained at 60 °C. The calibration standards and quality control (QC) samples were prepared in the control blank mouse plasma and tissue homogenate. Tissues were homogenized with 3 or 6 volumes (v/w) of deionized water on the day of analysis. Proteins were precipitated from 10 µL plasma or 5 µL tissue homogenate with 200 µL ACN containing 100 ng/mL Tolbutamide as internal standard in 96-well plates. The mixture was vortexed for 2 min and centrifuged at 4000 rpm for 30 min at 4 °C. An aliquot of 150 µL supernatant was transferred to a 350-µL 96-well plate. 0.2 µL supernatant was injected for the UPLC–MS/MS analysis. Data were analyzed using MassLynx V4.1. […]

[1] = KPC, mouse, pancreatic tumor, tumor, day 14, multiple PO doses 25 mg/kg/day
[2] = KPC, mouse, pancreatic tumor, tumor, single PO dose 25 mg/kg
[3] = KPC, mouse, liver, day 14, multiple PO doses 25 mg/kg/day
[4] = KPC, mouse, liver, single PO dose 25 mg/kg
[5] = KPC, mouse, plasma, day 14, multiple PO doses 25 mg/kg/day
[6] = KPC, mouse, plasma, single PO dose 25 mg/kg
[7] = KPC, mouse, spleen, day 14, multiple PO doses 25 mg/kg/day
[8] = KPC, mouse, spleen, single PO dose 25 mg/kg

N=c1c2c(-c3ccccc3)c(-c3ccccc3)n(Cc3ccccc3)c2ncn1[C@H]1CC[C@H](O)CC1 [metarrestin, Trans-4-(7-benzyl-4-imino-5,6-diphenyl-4,7-dihydro-3H-pyrrolo[2,3-d]pyrimidin-3-yl) cyclohexanol]
intratumor AUC0–24h (25 mg/kg PO gavage MD): 1,150,000 h ng/mL | AUC(0-t) (KPC, mouse, liver, 25 mg/kg, liver, single PO dose 25 mg/kg, read-out: AUC0–24h): 536 µg·h/mL | AUC(0-t) (KPC, mouse, liver, 25 mg/kg/day, liver, day 14, multiple PO doses 25 mg/kg/day, read-out: AUC0–24h): 987 µg·h/mL | AUC(0-t) (KPC, mouse, liver, 25 mg/kg/day, liver, day 14, multiple PO doses 25 mg/kg/day, read-out: AUC0–48h): 1290 µg·h/mL | Kp (KPC, mouse, pancreatic tumor / plasma, tumor/plasma, day 14, multiple PO doses 25 mg/kg/day): 37 | Kp (KPC, mouse, pancreatic tumor / plasma, tumor/plasma, single PO dose 25 mg/kg): 19 | AUC(0-t) (KPC, mouse, pancreatic tumor, 25 mg/kg, tumor, single PO dose 25 mg/kg, read-out: AUC0–24h): 232 µg·h/mL | AUC(0-t) (KPC, mouse, pancreatic tumor, 25 mg/kg/day, tumor, day 14, multiple PO doses 25 mg/kg/day, read-out: AUC0–24h): 1150 µg·h/mL | AUC(0-t) (KPC, mouse, pancreatic tumor, 25 mg/kg/day, tumor, day 14, multiple PO doses 25 mg/kg/day, read-out: AUC0–48h): 1810 µg·h/mL | concentration at 24 h (KPC, mouse, pancreatic tumor, 24 h after single dose 25 mg/kg PO, read-out: intratumor concentration (mean)): 6200 ng/g and 13 µM | AUC(0-inf) [1]: 2090 µg·h/mL | Cmax [1]: 65000 ng/mL | Tmax [1]: 6 h | half-life [1]: 18 h | Cmax [2]: 14000 ng/mL | Tmax [2]: 6 h | AUC(0-t) (KPC, mouse, plasma, 25 mg/kg, plasma, single PO dose 25 mg/kg, read-out: AUC0–24h): 12.1 µg·h/mL | AUC(0-t) (KPC, mouse, plasma, 25 mg/kg/day, plasma, day 14, multiple PO doses 25 mg/kg/day, read-out: AUC0–24h): 31.5 µg·h/mL | AUC(0-t) (KPC, mouse, plasma, 25 mg/kg/day, plasma, day 14, multiple PO doses 25 mg/kg/day, read-out: AUC0–48h): 38.4 µg·h/mL | AUC(0-t) (KPC, mouse, spleen, 25 mg/kg, spleen, single PO dose 25 mg/kg, read-out: AUC0–24h): 396 µg·h/mL | AUC(0-t) (KPC, mouse, spleen, 25 mg/kg/day, spleen, day 14, multiple PO doses 25 mg/kg/day, read-out: AUC0–24h): 959 µg·h/mL | AUC(0-t) (KPC, mouse, spleen, 25 mg/kg/day, spleen, day 14, multiple PO doses 25 mg/kg/day, read-out: AUC0–48h): 1220 µg·h/mL | Kp (KPC, mouse, liver/plasma, day 14, multiple PO doses 25 mg/kg/day): 31 | Kp (KPC, mouse, liver/plasma, single PO dose 25 mg/kg): 44 | AUC(0-inf) [3]: 1350 µg·h/mL | Cmax [3]: 59500 ng/mL | Tmax [3]: 6 h | half-life [3]: 9.6 h | AUC(0-inf) [4]: 653 µg·h/mL | Cmax [4]: 34200 ng/mL | Tmax [4]: 6 h | half-life [4]: 9 h | AUC(0-inf) [5]: 39.3 µg·h/mL | Cmax [5]: 2000 ng/mL | Tmax [5]: 3 h | half-life [5]: 8.2 h | AUC(0-inf) [6]: 14.4 µg·h/mL | Cmax [6]: 810 ng/mL | Tmax [6]: 6 h | half-life [6]: 8.5 h | Kp (KPC, mouse, spleen/plasma, day 14, multiple PO doses 25 mg/kg/day): 30 | Kp (KPC, mouse, spleen/plasma, single PO dose 25 mg/kg): 33 | AUC(0-inf) [7]: 1250 µg·h/mL | Cmax [7]: 62400 ng/mL | Tmax [7]: 6 h | half-life [7]: 8.2 h | AUC(0-inf) [8]: 495 µg·h/mL | Cmax [8]: 25000 ng/mL | Tmax [8]: 6 h | half-life [8]: 9.7 h | AUC0–24h (liver, MD 25 mg/kg/day PO): 987,000 ng h/g | AUC0–24h (liver, SD 25 mg/kg PO): 536,000 ng h/g | AUC0–24h (tumor, MD 25 mg/kg/day PO): 1,150,000 ng h/g | AUC0–24h (tumor, SD 25 mg/kg PO): 232,000 ng h/g
